The record followed here is publication PMC8746953, “Caseinolytic Proteins (Clp) in the Genus Klebsiella: Special Focus on ClpK” (Molecules, 2021).

Molecules are shown by their SMILES.

This assay deals with T1, ClpK (Klebsiella pneumoniae, UniProt E0W6V3).
T1 construct: full-length codon-optimised gene in pColdI (BamH1/SalH1), His-tagged, expressed in E. coli BL21; oligomer not measured
The assay can be described thus: fluorescence emission of mant-nucleotide (excitation […] nm). It counts as binding. The following applies: 2 uM ClpK, 10 uM mant-ATP; 10 mM sodium phosphate pH 7.4, 20 °C; labelled compound.

T1 sequence (E0W6V3 entry or part of it): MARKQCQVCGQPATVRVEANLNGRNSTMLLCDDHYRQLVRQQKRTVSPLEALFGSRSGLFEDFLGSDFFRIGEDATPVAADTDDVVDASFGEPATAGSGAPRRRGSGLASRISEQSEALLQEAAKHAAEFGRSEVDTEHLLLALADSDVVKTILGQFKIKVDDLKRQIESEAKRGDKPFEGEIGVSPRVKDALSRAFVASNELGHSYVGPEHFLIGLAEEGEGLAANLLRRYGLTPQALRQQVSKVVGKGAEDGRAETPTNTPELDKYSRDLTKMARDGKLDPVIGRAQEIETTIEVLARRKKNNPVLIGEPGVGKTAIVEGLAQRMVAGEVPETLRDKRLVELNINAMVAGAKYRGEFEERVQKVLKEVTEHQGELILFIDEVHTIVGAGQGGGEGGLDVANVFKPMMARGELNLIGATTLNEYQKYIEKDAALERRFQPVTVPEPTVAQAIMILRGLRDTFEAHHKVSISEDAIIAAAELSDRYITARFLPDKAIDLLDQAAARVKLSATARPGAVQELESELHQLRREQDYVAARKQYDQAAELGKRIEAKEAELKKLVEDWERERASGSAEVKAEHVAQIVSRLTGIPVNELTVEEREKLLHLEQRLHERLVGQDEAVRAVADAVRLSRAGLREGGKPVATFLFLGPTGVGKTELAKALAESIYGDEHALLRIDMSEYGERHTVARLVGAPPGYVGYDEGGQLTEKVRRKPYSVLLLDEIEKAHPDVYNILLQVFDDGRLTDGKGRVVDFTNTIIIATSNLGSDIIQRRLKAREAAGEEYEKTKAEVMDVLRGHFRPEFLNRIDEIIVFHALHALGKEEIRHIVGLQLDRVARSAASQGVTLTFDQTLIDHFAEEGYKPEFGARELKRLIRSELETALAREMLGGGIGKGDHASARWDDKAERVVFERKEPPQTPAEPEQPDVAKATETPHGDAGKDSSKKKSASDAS

For the compound `CNc1ccccc1C(=O)O[C@H]1[C@@H](O)[C@H](n2cnc3c(N)ncnc32)O[C@@H]1COP(=O)(O)OP(=O)(O)OP(=O)(O)O` [mant-ATP], the “fluorescence emission of mant-nucleotide (excitation 355 nm)” value is “The spectrum indicates binding of mant-ATP as indicated by an increase in the fluorescence quantum yield”.
